For one series, the target named is cathepsin B (CatB) (Homo sapiens, UniProt P07858). The series can be described thus: Cathepsin B enzyme inhibition. The class given is biochemical. The note with it: for remaining activity (%) at 10 μM, CatB / remaining activity at 10 µM: replicates = 2, n.i. = no inhibition observed at 10 μM.
Series [1] has as its target T1, Human recombinant cathepsin K (Homo sapiens, UniProt P43235).
T1 sequence (P43235 115-329): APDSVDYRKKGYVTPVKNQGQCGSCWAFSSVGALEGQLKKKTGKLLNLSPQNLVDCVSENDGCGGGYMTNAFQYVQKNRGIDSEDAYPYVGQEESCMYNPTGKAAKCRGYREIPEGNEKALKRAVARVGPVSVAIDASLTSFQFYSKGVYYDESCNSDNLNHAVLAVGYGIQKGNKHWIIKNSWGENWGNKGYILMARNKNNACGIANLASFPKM
Nature of the series: Cathepsin K assay. The note with it: for remaining activity at 10 µM: read-out: remaining activity (%) at 10 μM, CatK; for Ki: SD lower than 15%, read-out: pKi CatK (converted). Type of series: biochemical. The method, boiled down:
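Recombinant human cathepsin K, pre-activated 30 min at 37 °C in pH 5.0 citrate buffer with 5 mM DTT and CHAPS, was used at 1.73 ng/mL final. Reaction was started by adding enzyme to Z-Leu-Arg-AMC plus inhibitor (2% DMSO). AMC fluorescence (ex 360/em 440 nm) was followed 20 min at 25 °C.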

A further series addresses cathepsin L (CatL) (Homo sapiens, UniProt P07711). The series can be described thus: Cathepsin L enzyme inhibition. Type of series: biochemical. Conditions: for remaining activity at 10 µM: replicates = 2, n.i. = no inhibition observed at 10 μM; for Ki: SD lower than 15%, read-out: pKi CatL (converted).
For another series, the target named is cathepsin S (CatS) (Homo sapiens, UniProt P25774). Nature of the series: Cathepsin S enzyme inhibition. Conditions: for Ki: SD lower than 15%, read-out: pKi CatS (converted). Type of series: biochemical. Here is the method: (§1) Enzyme inhibition studies for Cz and LmCPB were performed as previously described for Cz. The experimental procedures are described in the Supporting Information (see chapter S3). Cathepsins B, L, S were assayed as reported.

The target of another series is recombinant cruzain (Cz) (Trypanosoma cruzi, UniProt P25779). The series can be described thus: Cruzain enzyme inhibition. Type of series: biochemical. The note with it: for remaining activity at 10 µM: replicates = 2; for Ki: SD lower than 15%, read-out: pKi Cz (converted). Here is the method: as §1
Series [2] concerns the target Leishmania mexicana CPB (LmCPB) (Leishmania mexicana, UniProt P36400). The series can be described thus: LmCPB enzyme inhibition. The class given is biochemical. The note with it: for remaining activity at 10 µM: replicates = 2; for Ki: SD lower than 15%, read-out: pKi LmCPB (converted). The protocol:
as §1

The subject of series [3] is T. cruzi Tulahuen LacZ strain, intracellular amastigote forms. The series can be described thus: In vitro trypanocidal activity on intracellular amastigote forms (Tulahuen strain). The class given is cell-based, Trypanosoma cruzi. The note with it: for EC50: Trypanosoma cruzi, TULAHUEN; for SI (selective index): from EC50 (T. cruzi) and CC50 (LLCMK2). The method, boiled down: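 LLCMK2 cells infected with Tulahuen LacZ trypomastigotes for 24 h at 37°C, 5% CO2; extracellular parasites washed away. Amastigote-infected cells exposed 72 h to compound, 1.95–250 μM serial dilutions, in DMSO. β-galactosidase read-out with CPRG substrate (400 μM, 0.3% Triton X-100, pH 7.4).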

The nature of series [4]: Mammalian cytotoxicity assay (MTT).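 Note: Read-out is absorbance at 570 nm of formazan taken up in DMSO.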 Type of series: cell-based. The note with it: rhesus monkey, LLCMK2 cells.
Experimental: (§2) LLCMK2 cells were cultured in 96-well plates at a concentration of 5 x 10^4 cells/ml. After 48 h, the plates were washed twice with PBS and 200 μL RPMI medium was added with serial dilutions of the compounds and benznidazole (1.95 μM to 250 μM) in triplicate. After 72 h at 37 °C, the cytotoxic activity of the compounds was determined by the classical MTT [3- (4,5-dimethylthiazol-2-yl) -2,5-diphenyltetrazolium bromide] method. Briefly, 50 μL MTT dissolved in PBS (2.0 mg mL^-1) was added to each well and the plates were incubated for 4 h at 37 °C. The formed formazan crystals were dissolved with DMSO (50 μL/well) and the absorbance of the samples was measured by spectrophotometer at 570 nm after 30 min.
The next series relates to LLCMK2 cells. The series can be described thus: Mammalian cytotoxicity assay (MTT).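 Note: Read-out is absorbance at 570 nm of formazan taken up in DMSO.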 The class given is cell-based. Conditions: LLCMK2, 72 h, MTT; Table 2.
A further series deals with T. cruzi infection. On the set-up: method as in PMID 14580960. Conditions: mice ref 10, 11; cited from earlier work.
The next series relates to T. cruzi. Further details: method as in PMID 14580960. Conditions: dogs ref 10, 11; cited from earlier work.
For series [5] the following is noted: dog, in vivo; cited from earlier work.
[6] abbreviates: 10 μM, replicates = 2, n.i. = no inhibition observed at 10 μM.
The mark [7] stands for this setting: 72 h, amastigote, Tulahuen strain, 72 h, Table 2, read-out: EC50 trypanocidal activity.
The mark [8] stands for this setting: T. cruzi amastigote form, S1 Table, read-out: pEC50 (converted).
Where [9] appears, read: LLCMK2, 72 h, MTT, Table 2, read-out: CC50 cytotoxicity.
The mark [10] stands for this setting: S1 Table, maximum concentration used 250 µM, read-out: CC50.
Where [11] appears, read: S1 Table, maximum concentration used 250 µM, read-out: EC50 T. cruzi.
Where [12] appears, read: amastigote forms of T. cruzi (Tuhaluen strain), Figs 12-14, unit inferred, read-out: EC50.

We go through eight molecules from article PMC7067379, “Mapping the S1 and S1’ subsites of cysteine proteases with new dipeptidyl nitrile inhibitors as trypanocidal agents” (PLoS Neglected Tropical Diseases, 2020).

SMILES strings stand for the structures. Read-outs that look alike come from different tables or passages of the source.

Chain of cathepsin L (CatL) (P07711 114-333): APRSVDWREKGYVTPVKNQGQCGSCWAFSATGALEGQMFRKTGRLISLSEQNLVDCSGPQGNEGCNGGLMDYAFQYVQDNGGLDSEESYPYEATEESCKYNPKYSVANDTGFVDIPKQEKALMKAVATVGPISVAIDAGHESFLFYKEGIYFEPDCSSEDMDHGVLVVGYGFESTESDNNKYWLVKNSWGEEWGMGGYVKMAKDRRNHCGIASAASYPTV
Chain of recombinant cruzain (Cz) (P25779 123-337): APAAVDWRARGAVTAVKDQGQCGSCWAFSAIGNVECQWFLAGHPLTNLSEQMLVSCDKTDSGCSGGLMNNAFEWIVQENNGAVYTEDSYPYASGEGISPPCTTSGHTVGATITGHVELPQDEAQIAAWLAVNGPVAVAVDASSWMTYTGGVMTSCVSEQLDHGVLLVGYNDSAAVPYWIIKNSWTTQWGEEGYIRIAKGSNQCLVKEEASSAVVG
Chain of Leishmania mexicana CPB (LmCPB) (P36400 126-443): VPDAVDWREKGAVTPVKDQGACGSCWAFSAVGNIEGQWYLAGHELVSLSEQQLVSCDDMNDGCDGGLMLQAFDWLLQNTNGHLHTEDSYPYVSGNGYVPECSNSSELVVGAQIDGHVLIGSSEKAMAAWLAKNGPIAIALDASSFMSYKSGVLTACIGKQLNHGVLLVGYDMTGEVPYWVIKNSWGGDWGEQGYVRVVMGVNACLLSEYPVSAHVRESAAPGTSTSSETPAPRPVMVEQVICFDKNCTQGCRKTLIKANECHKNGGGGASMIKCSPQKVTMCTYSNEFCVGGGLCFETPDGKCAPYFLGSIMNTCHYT
Chain of cathepsin S (CatS) (P25774 115-331): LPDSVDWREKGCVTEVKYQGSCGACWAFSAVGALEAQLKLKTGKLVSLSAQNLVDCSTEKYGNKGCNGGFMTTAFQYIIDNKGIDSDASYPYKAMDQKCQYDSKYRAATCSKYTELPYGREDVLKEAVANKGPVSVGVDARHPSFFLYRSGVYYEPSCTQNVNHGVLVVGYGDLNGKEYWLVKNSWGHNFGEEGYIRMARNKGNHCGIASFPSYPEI
Experimental for LLCMK2 cells: as §2

In the case of `C[C@H](OCc1ccccc1)[C@H](C#N)NC(=O)[C@H](Cc1ccccc1)NC(=O)c1cc(C(C)(C)C)nn1C` [Compound 57, N-((S)-1-(((1S,2S)-2-(Benzyloxy)-1-cyanopropyl)amino)-1-oxo-3-phenylpropan-2-yl)-3-(tert-butyl)-1-methyl-1H-pyrazole-5-carboxamide], the melting point lay in the range of 123 to 124 °C. Also, at cathepsin B (CatB), the “remaining activity (%) at 10 μM, CatB” value is listed as “n.i.^c”. Also, in series [1] (setting [6]), the remaining activity at 10 µM was determined as 97%. The remaining activity at 10 µM at cathepsin L (CatL) is 85%. In addition, the “remaining activity (%) at 10 μM, CatS” value at cathepsin S (CatS) (setting [6]) is given as “n.i.^c”. For the same molecule, the remaining activity at 10 µM at recombinant cruzain (Cz) came out at 75%. Also, the remaining activity at 10 µM in series [2] stood at 72%. Besides, the EC50 in series [3] (setting [7]) was 4.3 ± 0.32 µM. Also, in [3] (setting [8]), the EC50 was 3.98 µM. The 50% cytotoxic concentration (CC50) at 72 h in series [4] (setting [9]) is around 125 µM. The CC50 at 72 h in series [4] (setting [10]) worked out at 141 µM. Besides, in the series with LLCMK2 cells, the CC50 is above 100 µM.

Molecule `CC(C)C[C@H](NC(=O)c1cc(C(C)(C)C)nn1C)C(=O)N[C@H](C#N)[C@@H](C)OCc1ccccc1` [Compound 58, N-((S)-1-(((1R,2R)-2-(Benzyloxy)-1-cyanopropyl)amino)-4-methyl-1-oxopentan-2-yl)-3-(tert-butyl)-1-methyl-1H-pyrazole-5-carboxamide] had a melting point of 96 to 97 °C. The Ki at cathepsin B (CatB) (SD lower than 15%, read-out: pKi CatB (converted)) was 7.94 µM. In series [1], the Ki is 0.0158 µM. Moreover, the Ki at cathepsin L (CatL) was 0.0631 µM. On cathepsin S (CatS), the Ki is 0.0501 µM. Besides, the Ki at recombinant cruzain (Cz) is 0.0126 µM. On recombinant cruzain (Cz) (relative to compound 9, sign not given, direction by cell colour or wording), the “difference in pKi, Cz” value is reported as 0.6. For the same molecule, the Ki in series [2] was 0.02 µM. Moreover, the “difference in pKi, LmCPB” value in [2] (relative to compound 11, sign not given, direction by cell colour or wording) stood at 0.4. The EC50 in series [3] (setting [11]) was above 100 µM. Moreover, in series [3] (setting [8]), the EC50 was above 100 µM. Moreover, the EC50 in series [3] (setting [12]) is above 100 µM. Also, the CC50 at 72 h in series [4] (setting [10]) is above 100 µM.

In turn, `CC(C)C[C@H](NC(=O)c1cc(C(C)(C)C)nn1C)C(=O)N[C@@H](C#N)[C@H](C)OCc1ccccc1` [Compound 59, N-((S)-1-(((1S,2S)-2-(Benzyloxy)-1-cyanopropyl)amino)-4-methyl-1-oxopentan-2-yl)-3-(tert-butyl)-1-methyl-1H-pyrazole-5-carboxamide] had a melting point of 110 to 111 °C. The “remaining activity (%) at 10 μM, CatB” value at cathepsin B (CatB) is on record as “n.i.^c”. In series [1] (setting [6]), the “remaining activity (%) at 10 μM, CatK” value was “n.i.^c”. This molecule displayed a remaining activity at 10 µM on cathepsin L (CatL) of 90%. At cathepsin S (CatS) (setting [6]), this molecule came in with a remaining activity at 10 µM of 85%. The remaining activity at 10 µM on recombinant cruzain (Cz) came to 60%. Besides, in [2], the remaining activity at 10 µM came to 75%. The EC50 in series [3] (setting [11]) is above 100 µM. For the same molecule, the EC50 in series [3] (setting [8]) is above 100 µM. In addition, in series [3] (setting [12]), the EC50 was above 100 µM. Also, the CC50 at 72 h in [4] (setting [10]) is above 100 µM.

For `C[C@@H](O)[C@@H](C#N)NC(=O)[C@H](Cc1ccccc1)NC(=O)c1cc(C(C)(C)C)nn1C` [Compound 65, 3-(tert-Butyl)-N-((S)-1-(((1R,2R)-1-cyano-2-hydroxypropyl)amino)-1-oxo-3-phenylpropan-2-yl)-1-methyl-1H-pyrazole-5-carboxamide], the melting point was 159 to 160 °C. At cathepsin B (CatB), this molecule displayed a remaining activity at 10 µM of 92%. Also, the remaining activity at 10 µM in series [1] (setting [6]) turned out to be 86%. Besides, the Ki on cathepsin L (CatL) is 5.01 µM. The Ki at cathepsin S (CatS) is 5.01 µM. On recombinant cruzain (Cz), the remaining activity at 10 µM turned out to be 68%. The remaining activity at 10 µM in series [2] amounted to 69%. Also, in series [3] (setting [7]), the EC50 was found to be 70.8 ± 8.79 µM. Further, the EC50 in series [3] (setting [8]) is 79.4 µM. The “SI (selective index)” value in [3] (Table 2) is above 1.4. Moreover, the CC50 at 72 h in [4] (setting [9]) was above 100 µM.

`C[C@H](O)[C@H](C#N)NC(=O)[C@H](Cc1ccccc1)NC(=O)c1cc(C(C)(C)C)nn1C` [Compound 66, 3-(tert-Butyl)-N-((S)-1-(((1S,2S)-1-cyano-2-hydroxypropyl)amino)-1-oxo-3-phenylpropan-2-yl)-1-methyl-1H-pyrazole-5-carboxamide] gave a melting point of 145 to 147 °C. For the same molecule, the remaining activity at 10 µM at cathepsin B (CatB) is 89%. The remaining activity at 10 µM in series [1] (setting [6]) was determined as 81%. Also, the Ki at cathepsin L (CatL) was 2.51 µM. Also, the Ki on cathepsin S (CatS) is 20 µM. In addition, the Ki on recombinant cruzain (Cz) is 3.98 µM. Besides, the Ki in series [2] is 15.8 µM. Further, the EC50 in series [3] (setting [7]) turned out to be 30 ± 2.71 µM. Further, the EC50 in series [3] (setting [8]) is 31.6 µM. The “SI (selective index)” value in series [3] (Table 2) is reported as above 3.3. Moreover, the CC50 at 72 h in [4] (setting [9]) is above 100 µM.

Take `CC(C)C[C@H](NC(=O)c1cc(C(C)(C)C)nn1C)C(=O)N[C@H](C#N)[C@@H](C)O` [Compound 67, 3-(tert-Butyl)-N-((S)-1-(((1R,2R)-1-cyano-2-hydroxypropyl)amino)-4-methyl-1-oxopentan-2-yl)-1-methyl-1H-pyrazole-5-carboxamide]: the melting point was in the range of 118 to 119 °C. Moreover, the remaining activity at 10 µM on cathepsin B (CatB) was determined as 92%. For the same molecule, in [1], the Ki is 0.0158 µM. At cathepsin L (CatL), the Ki was 0.1 µM. Also, the Ki at cathepsin S (CatS) is 10 µM. The Ki on recombinant cruzain (Cz) is 0.0794 µM. The Ki in series [2] is 0.2 µM. Besides, in series [3] (setting [7]), the EC50 is 24.4 ± 2.36 µM. In addition, in [3] (setting [8]), the EC50 was 25.1 µM. Further, the “SI (selective index)” value in series [3] (Table 2) was above 4.1. Besides, the CC50 at 72 h in series [4] (setting [9]) was above 100 µM.

Turning to `CC(C)C[C@H](NC(=O)c1cc(C(C)(C)C)nn1C)C(=O)N[C@@H](C#N)[C@H](C)O` [Compound 68, 3-(tert-Butyl)-N-((S)-1-(((1S,2S)-1-cyano-2-hydroxypropyl)amino)-4-methyl-1-oxopentan-2-yl)-1-methyl-1H-pyrazole-5-carboxamide], the melting point is 111 to 113 °C. At cathepsin B (CatB), this molecule returned a remaining activity at 10 µM of 93%. For the same molecule, in [1], the Ki was 7.94 µM. The molecule further had a remaining activity at 10 µM on cathepsin L (CatL) of 88%. The molecule further showed a remaining activity at 10 µM on cathepsin S (CatS) (setting [6]) of 83%. The Ki at recombinant cruzain (Cz) is 3.98 µM. In addition, the remaining activity at 10 µM in [2] came to 54%. Moreover, the EC50 in [3] (setting [7]) was 16 ± 4 µM. The EC50 in series [3] (setting [11]) stood at 16.3 µM. Moreover, the EC50 in series [3] (setting [8]) is 15.8 µM. In series [3] (Table 2), the “SI (selective index)” value is above 6.3. The CC50 at 72 h in series [4] (setting [9]) is above 100 µM.

Regarding `CN1CCN(C(=O)N[C@@H](Cc2ccccc2)C(=O)N[C@H](/C=C/S(=O)(=O)c2ccccc2)CCc2ccccc2)CC1` [Compound K777], the “rescue from lethal infection” value with T. cruzi infection is on record as “rescue mice of a lethal experimental T. cruzi infection”. Also, in the series on T. cruzi, the “effect on parasite growth” value was “reduce parasite growth”. In addition, the side effects entry in series [5] was “substantial side effects”.
